Assay results taken from ChEMBL document CHEMBL3745649, “Structure-activity relationship study of anticancer thymidine-quinoxaline conjugates under the low radiance of long wavelength ultraviolet light for photodynamic therapy” (Eur J Med Chem, 2016).
Active and inactive are the calls of the source. The rule behind the calls is not given here.

Key:
[1] = Photocytotoxicity against human Bel7402 cells assessed as cell viability preincubated for 5 hrs followed by UVA-1 irradiation at 0.85 mW/cm'2 for 20 mins measured after 48 hrs by CCK8 assay; type: functional, cell-based; details: Bel-7402, light or radiation study
[2] = Dark toxicity against human Bel7402 cells assessed as cell viability after 53 hrs by CCK8 assay in absence of UVA-1 irradiation; type: cell-based, Bel-7402
[3] = Photocytotoxicity against human PANC1 cells assessed as cell viability preincubated for 5 hrs followed by UVA-1 irradiation at 0.85 mW/cm'2 for 20 mins measured after 48 hrs by CCK8 assay; type: functional, cell-based; details: PANC-1, light or radiation study
[4] = Dark toxicity against human PANC1 cells assessed as cell viability after 53 hrs by CCK8 assay in absence of UVA-1 irradiation; type: cell-based, PANC-1
PANC-1 [5] = test: Antioxidant activity in human PANC1 cells assessed as reduction of H2O2-induced reactive oxygen stress level at 5 uM after 15 mins by DCFH-DA based fluorescence assay; type: functional, cell-based
Bel-7402 = test: Photocytotoxicity against human Bel7402 cells assessed as production of reactive oxygen stress at 5 uM preincubated for 5 hrs followed by UVA-1 irradiation at 0.85 mW/cm'2 for 20 mins measured for 10 mins by DCFH-DA based fluorescence microscopic analysis; type: functional, cell-based
PANC-1 [6] = test: Antioxidant activity in human PANC1 cells assessed as reduction of reactive oxygen stress level at 5 uM after 15 mins by DCFH-DA based fluorescence assay in absence of H2O2; type: functional, cell-based
PANC-1 [7] = test: Photocytotoxicity against human PANC1 cells assessed as production of reactive oxygen stress at 5 uM preincubated for 5 hrs followed by UVA-1 irradiation at 0.85 mW/cm'2 for 20 mins measured for 10 mins by DCFH-DA based fluorescence microscopic analysis; type: functional, cell-based
[8] = Photocytotoxicity against human PANC1 cells assessed as cell viability preincubated for 5 hrs with cells followed by UVA-1 irradiation at 3.0 mW/cm'2 for 20 mins measured after 48 hrs by CCK8 assay; type: functional, cell-based; details: PANC-1, light or radiation study
[9] = Photocytotoxicity against human Bel7402 cells assessed as cell viability preincubated for 5 hrs with cells followed by UVA-1 irradiation at 3.0 mW/cm'2 for 20 mins measured after 48 hrs by CCK8 assay; type: functional, cell-based; details: Bel-7402, light or radiation study

Cc1cn([C@H]2C[C@H](n3cc(CNC(=O)CCCCCCCOc4ccc5c(c4)-c4nc6ccccc6nc4[C@H]4C(C)(C)CCC[C@]54C)nn3)[C@@H](CO)O2)c(=O)[nH]c1=O
EC50 [1]: 5.6 µM
EC50 at 53 h [2]: 10 µM
EC50 [3]: 8.1 µM
EC50 at 53 h [4]: > 50 µM

Cc1cn([C@H]2C[C@H](n3cc(CNC(=O)CCCCCOc4ccc5c(c4)-c4nc6cc(Br)c(Br)cc6nc4[C@@H]4C(C)(C)CCC[C@]54C)nn3)[C@@H](CO)O2)c(=O)[nH]c1=O
EC50 [1]: 2.1 µM
EC50 at 53 h [2]: > 20 µM
EC50 [3]: 5.8 µM
EC50 at 53 h [4]: ≥ 50 µM

Cc1cn([C@H]2C[C@H](n3cc(CNC(=O)CCCCCCCOc4ccc5c(c4)-c4nc6ccccc6nc4[C@@H]4C(C)(C)CCC[C@]54C)nn3)[C@@H](CO)O2)c(=O)[nH]c1=O
EC50 [1]: 4 µM
EC50 at 53 h [2]: 10 µM
EC50 [3]: 5.7 µM
EC50 at 53 h [4]: ≥ 50 µM

Cc1cn([C@H]2C[C@H](n3cc(CNC(=O)COc4ccc5c(c4)-c4nc6ccccc6nc4[C@@H]4C(C)(C)CCC[C@]54C)nn3)[C@@H](CO)O2)c(=O)[nH]c1=O
EC50 [1]: 12.5 µM
EC50 at 53 h [2]: > 20 µM
EC50 [3]: > 20 µM
EC50 at 53 h [4]: 20 µM

Cc1cn([C@H]2C[C@H](n3cc(CCCC(=O)Nc4cc5ccc6cccc7ccc(c4)c5c67)nn3)[C@@H](CO)O2)c(=O)[nH]c1=O
EC50 [1]: > 20 µM
EC50 at 53 h [2]: > 50 µM
EC50 [3]: > 20 µM
EC50 at 53 h [4]: > 50 µM

[N-]=[N+]=N[C@@H]1O[C@H](CO)[C@H](O)[C@H](O)[C@H]1O
Activity (PANC-1 [5]): Active

Cc1cn([C@H]2C[C@H](n3cc(CNC(=O)CCCCCOc4ccc5c(c4)-c4nc6ccccc6nc4[C@H]4C(C)(C)CCC[C@]54C)nn3)[C@@H](CO)O2)c(=O)[nH]c1=O
EC50 [1]: 5.1 µM
EC50 at 53 h [2]: > 20 µM
EC50 [3]: 11.3 µM
EC50 at 53 h [4]: > 50 µM

CC1(C)CCC[C@]2(C)c3ccc(OCCCCCC(=O)NCc4cn([C@@H]5O[C@H](CO)[C@H](O)[C@H](O)[C@H]5O)nn4)cc3-c3nc4ccccc4nc3[C@H]12
Activity (Bel-7402): inactive
EC50 [1]: > 20 µM
Activity (PANC-1 [6]): Active
EC50 at 53 h [2]: > 50 µM
Activity (PANC-1 [7]): inactive
Activity (PANC-1 [5]): Active
EC50 [3]: > 20 µM
EC50 at 53 h [4]: > 50 µM

Cc1cn([C@H]2C[C@H](n3cc(CNC(=O)CCCOc4ccc5c(c4)-c4nc6ccccc6nc4[C@@H]4C(C)(C)CCC[C@]54C)nn3)[C@@H](CO)O2)c(=O)[nH]c1=O
EC50 [1]: 10.9 µM
EC50 at 53 h [2]: > 20 µM
EC50 [3]: > 10 µM
EC50 at 53 h [4]: 20 µM

Cc1cn([C@H]2C[C@H](n3cc(CNC(=O)CCCCCOc4ccc5c(c4)C(=O)C(=O)[C@@H]4C(C)(C)CCC[C@]54C)nn3)[C@@H](CO)O2)c(=O)[nH]c1=O
EC50 [1]: > 20 µM
EC50 at 53 h [2]: > 50 µM
EC50 [3]: > 20 µM
EC50 at 53 h [4]: > 50 µM

Cc1cn([C@H]2C[C@H](n3cc(CNC(=O)CCCCCOc4ccc5c(c4)-c4nc6ccc(F)cc6nc4[C@@H]4C(C)(C)CCC[C@]54C)nn3)[C@@H](CO)O2)c(=O)[nH]c1=O
EC50 [1]: 7.4 µM
EC50 at 53 h [2]: 10 µM
EC50 [3]: 13.5 µM
EC50 at 53 h [4]: ≥ 50 µM

Cc1cn([C@H]2C[C@H](n3cc(CNC(=O)CCCCCOc4ccc5c(c4)-c4nc6cc(F)ccc6nc4[C@@H]4C(C)(C)CCC[C@]54C)nn3)[C@@H](CO)O2)c(=O)[nH]c1=O
EC50 [1]: 4 µM
EC50 at 53 h [2]: 10 µM
EC50 [3]: 7 µM
EC50 at 53 h [4]: 20 µM

CCN(CC)CCNC(=O)c1c(C)[nH]c(/C=C2\C(=O)Nc3ccc(F)cc32)c1C [SUNITINIB]
EC50 [8]: 13 µM
EC50 [9]: 11 µM
